# Assay results taken from patent US9018208B2, “Heterocycles as potassium channel modulators” (Icagen Inc., priority 2007, dated 2015).
# Where two headings read alike, the source gives them in different places.
# Tested on: SH-SY5Y M-currents (KCNQ2, KCNQ3 and KCNQ5)
# Experiment: SH-SY5Y native cell line FLIPR assay (voltage-sensitive dye DiBAC)
# Assay type: cell-based, mouse neuroblastoma, rat glioma hybrid cell line
# Conditions: SH-SY5Y native cell line, read-out: SH-SY5Y EC50
# Outline: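 Response is peak DiBAC fluorescence change, normalised to the maximum from a positive control agent, sampled every 30 s over 25 min. Before compound addition, SH-SY5Y cells differentiated with PGE1 plus isomethylbutylxanthine were dye-loaded for 1 h in EBSS with […] DiBAC.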
"EC50 (FLIPR assay, Table 2)",SMILES,also measured
–,"CC(CC(=O)Nc1nc2ccc(F)cn2c1-c1nccs1)C(F)(F)F (stereo not shown) [Compound 383, 4,4,4-trifluoro-N-(6-fluoro-3-(thiazol-2-yl)imidazo[1,2-a]pyridin-2-yl)-3-methylbutanamide]",EC50 (FLIPR assay (Table 3)): 3000 to 10000 nM
< 500 nM,"O=C(Cc1ccc(F)c(F)c1)Nc1nc2ccc(F)cn2c1-c1ccc(OC(F)(F)F)cc1 [Compound 241, 2-(3,4-difluorophenyl)-N-(6-fluoro-3-(4-(trifluoromethoxy)phenyl)imidazo[1,2-a]pyridin-2-yl)acetamide]",–
–,"CC(C)(C)Cc1c(NC(=O)Cc2cccc(Cl)c2)nc2ccc(C(F)(F)F)cn12 [Compound 35, 2-(3-chlorophenyl)-N-(3-neopentyl-6-(trifluoromethyl)imidazo[1,2-a]pyridin-2-yl)acetamide]","EC50 (FLIPR assay, Table 1): < 500 nM"
500 to 3000 nM,"O=C(Cc1ccc(C(F)(F)F)cc1)Nc1nc2ccc(F)cn2c1-c1cccc(Cl)c1 [Compound 299, N-(3-(3-chlorophenyl)-6-fluoroimidazo[1,2-a]pyridin-2-yl)-2-(4-(trifluoromethyl)phenyl)acetamide]",–
–,"CC(C)(C)Cc1c(NC(=O)C2CC2)nc2ccc(C(F)(F)F)cn12 [Compound 64, N-(3-neopentyl-6-(trifluoromethyl)imidazo[1,2-a]pyridin-2-yl)cyclopropanecarboxamide]","EC50 (FLIPR assay, Table 1): 500 to 3000 nM"
500 to 3000 nM,"CCC(C)CC(=O)Nc1nc2ccc(F)cn2c1-c1ccc(F)cc1 (stereo not shown) [Compound 147, N-(6-fluoro-3-(4-fluorophenyl)imidazo[1,2-a]pyridin-2-yl)-3-methylpentanamide]",–
500 to 3000 nM,"O=C(Cc1ccccc1)Nc1nc2cc(C(F)(F)F)ccn2c1-c1ccc(F)cc1 [Compound 112, N-(3-(4-fluorophenyl)-7-(trifluoromethyl)imidazo[1,2-a]pyridin-2-yl)-2-phenylacetamide]",–
–,"CC(CC(=O)Nc1nc2ccc(F)cn2c1-c1nc2ccccc2s1)C(F)(F)F (stereo not shown) [Compound 374, N-(3-(benzo[d]thiazol-2-yl)-6-fluoroimidazo[1,2-a]pyridin-2-yl)-4,4,4-trifluoro-3-methylbutanamide]",EC50 (FLIPR assay (Table 3)): 3000 to 10000 nM
3000 to 10000 nM,"CC(Oc1ccccc1)C(=O)Nc1nc2ccc(F)cn2c1-c1ccc(OC(F)(F)F)cc1 (stereo not shown) [Compound 232, N-(6-fluoro-3-(4-(trifluoromethoxy)phenyl)imidazo[1,2-a]pyridin-2-yl)-2-phenoxypropanamide]",–
–,"O=C(Cc1ccccc1)Nc1nc2ccc(C(F)(F)F)cn2c1CC1CCCCC1 [Compound 37, N-(3-(cyclohexylmethyl)-6-(trifluoromethyl)imidazo[1,2-a]pyridin-2-yl)-2-phenylacetamide]","EC50 (FLIPR assay, Table 1): < 500 nM"
–,"CC(C)(C)Cc1c(NC(=O)CC2CC2)nc2ccc(C(F)(F)F)cn12 [Compound 57, 2-cyclopropyl-N-(3-neopentyl-6-(trifluoromethyl)imidazo[1,2-a]pyridin-2-yl)acetamide]","EC50 (FLIPR assay, Table 1): < 500 nM"
–,"Cc1c(NC(=O)Cc2ccc(F)cc2)nc2ccc(F)cn12 [Compound 422, N-(6-fluoro-3-methylimidazo[1,2-a]pyridin-2-yl)-2-(4-fluorophenyl)acetamide]","EC50 (FLIPR assay, Table 5): 3000 to 10000 nM"
500 to 3000 nM,"O=C(CCC(F)(F)F)Nc1nc2ccc(F)cn2c1-c1ccc(OC(F)(F)F)cc1 [Compound 173, 4,4,4-trifluoro-N-(6-fluoro-3-(4-(trifluoromethoxy)phenyl)imidazo[1,2-a]pyridin-2-yl)butanamide]",–
< 500 nM,"O=C(CC1CCCC1)Nc1nc2ccc(F)cn2c1-c1ccc(F)cc1 [Compound 107, 2-cyclopentyl-N-(6-fluoro-3-(4-fluorophenyl)imidazo[1,2-a]pyridin-2-yl)acetamide]",–
–,"O=C(Cc1ccc(F)cc1)Nc1nc2ccc(C(F)(F)F)cn2c1-c1cc(C(F)(F)F)ccn1 [Compound 400, 2-(4-fluorophenyl)-N-(6-(trifluoromethyl)-3-(4-(trifluoromethyl)pyridin-2-yl)imidazo[1,2-a]pyridin-2-yl)acetamide]",EC50 (FLIPR assay (Table 3)): < 500 nM
< 500 nM,"O=C(Cc1ccccc1)Nc1nc2ccc(F)cn2c1-c1cc(F)cc(F)c1 [Compound 228, N-(3-(3,5-difluorophenyl)-6-fluoroimidazo[1,2-a]pyridin-2-yl)-2-phenylacetamide]",–
< 500 nM,"Cc1cc(-c2c(NC(=O)CC(C)(C)C)nc3ccc(F)cn23)ccc1F [Compound 255, N-(6-fluoro-3-(4-fluoro-3-methylphenyl)imidazo[1,2-a]pyridin-2-yl)-3,3-dimethylbutanamide]",–
–,"CC1(CC(=O)Nc2nc3ccc(C(F)(F)F)cn3c2CC2CCCCC2)CCCC1 [Compound 46, N-(3-(cyclohexylmethyl)-6-(trifluoromethyl)imidazo[1,2-a]pyridin-2-yl)-2-(1-methylcyclopentyl)acetamide]","EC50 (FLIPR assay, Table 1): < 500 nM"
500 to 3000 nM,"O=C(CCC(F)(F)F)Nc1nc2ccc(F)cn2c1-c1ccc(F)cc1 [Compound 108, 4,4,4-trifluoro-N-(6-fluoro-3-(4-fluorophenyl)imidazo[1,2-a]pyridin-2-yl)butanamide]",–

"EC50 (FLIPR assay, Table 2)",SMILES,also measured
500 to 3000 nM,"O=C(Cc1ccc(F)cc1)Nc1nc2cc(C(F)(F)F)ccn2c1-c1ccc(F)cc1F [Compound 122, N-(3-(2,4-difluorophenyl)-7-(trifluoromethyl)imidazo[1,2-a]pyridin-2-yl)-2-(4-fluorophenyl)acetamide]",–
500 to 3000 nM,"O=C(Nc1nc2ccc(F)cn2c1-c1ccc(C(F)(F)F)cc1)N1CCC(F)(F)CC1 [Compound 345, 4,4-difluoro-N-(6-fluoro-3-(4-(trifluoromethyl)phenyl)imidazo[1,2-a]pyridin-2-yl)piperidine-1-carboxamide]",–
–,"CC1(CC(=O)Nc2nc3ccc(F)cn3c2-c2nc3ccccc3s2)CCCC1 [Compound 375, N-(3-(benzo[d]thiazol-2-yl)-6-fluoroimidazo[1,2-a]pyridin-2-yl)-2-(1-methylcyclopentyl)acetamide]",EC50 (FLIPR assay (Table 3)): < 500 nM
500 to 3000 nM,"O=C(Cc1ccc(F)cc1F)Nc1nc2ccc(F)cn2c1-c1ccc(F)cc1 [Compound 136, 2-(2,4-difluorophenyl)-N-(6-fluoro-3-(4-fluorophenyl)imidazo[1,2-a]pyridin-2-yl)acetamide]",–
< 500 nM,"O=C(CC1CCC1)Nc1nc2ccc(F)cn2c1-c1cccc(OC(F)(F)F)c1 [Compound 266, 2-cyclobutyl-N-(6-fluoro-3-(3-(trifluoromethoxy)phenyl)imidazo[1,2-a]pyridin-2-yl)acetamide]",–
500 to 3000 nM,"COc1ccc(CC(=O)Nc2nc3ccc(F)cn3c2-c2ccc(F)cc2)cc1 [Compound 132, N-(6-fluoro-3-(4-fluorophenyl)imidazo[1,2-a]pyridin-2-yl)-2-(4-methoxyphenyl)acetamide]",–
–,"CC(C)(C)CC(=O)Nc1nc2ccc(C(F)(F)F)cn2c1-c1nc2ccccc2s1 [Compound 376, N-(3-(benzo[d]thiazol-2-yl)-6-(trifluoromethyl)imidazo[1,2-a]pyridin-2-yl)-3,3-dimethylbutanamide]",EC50 (FLIPR assay (Table 3)): < 500 nM
–,"CC(C)(C)CC(=O)N(C(=O)CC(C)(C)C)c1nc2ccc(F)cn2c1-c1cccc(C(F)(F)F)n1 [Compound 357, N-(3,3-dimethylbutanoyl)-N-(6-fluoro-3-(6-(trifluoromethyl)pyridin-2-yl)imidazo[1,2-a]pyridin-2-yl)-3,3-dimethylbutanamide]",EC50 (FLIPR assay (Table 3)): 3000 to 10000 nM
< 500 nM,"Cc1ccn2c(-c3ccc(F)cc3)c(NC(=O)CC(C)(C)C)nc2c1 [Compound 169, N-(3-(4-fluorophenyl)-7-methylimidazo[1,2-a]pyridin-2-yl)-3,3-dimethylbutanamide]",–
–,"CC(C)CCc1c(NC(=O)Cc2ccc(F)cc2)nc2ccc(C(F)(F)F)cn12 [Compound 39, 2-(4-fluorophenyl)-N-(3-isopentyl-6-(trifluoromethyl)imidazo[1,2-a]pyridin-2-yl)acetamide]","EC50 (FLIPR assay, Table 1): < 500 nM"
3000 to 10000 nM,"COc1ccn2c(-c3ccc(C(F)(F)F)cc3)c(NC(=O)CC(F)(F)F)nc2c1 [Compound 307, 3,3,3-trifluoro-N-(7-methoxy-3-(4-(trifluoromethyl)phenyl)imidazo[1,2-a]pyridin-2-yl)propanamide]",–
–,"O=C(Nc1nc2ccc(C(F)(F)F)cn2c1C1CCCC1)C1CCCC1 [Compound 55, N-(3-cyclopentyl-6-(trifluoromethyl)imidazo[1,2-a]pyridin-2-yl)cyclopentanecarboxamide]","EC50 (FLIPR assay, Table 1): < 500 nM"
–,"C=Cc1c(NC(=O)CC(F)(F)F)nc2cc(C(F)(F)F)ccn12 [Compound 427, 3,3,3-trifluoro-N-(7-(trifluoromethyl)-3-vinylimidazo[1,2-a]pyridin-2-yl)propanamide]","EC50 (FLIPR assay, Table 5): 3000 to 10000 nM"
–,"Cc1ccc2nc(NC(=O)CC(C)(C)C)c(-c3nc4ccccc4s3)n2n1 [Compound 382, N-(3-(benzo[d]thiazol-2-yl)-6-methylimidazo[1,2-b]pyridazin-2-yl)-3,3-dimethylbutanamide]",EC50 (FLIPR assay (Table 3)): 3000 to 10000 nM
< 500 nM,"CC(C)(C)CC(=O)Nc1nc2ccc(F)cn2c1-c1ccc(F)c(C(F)F)c1 [Compound 196, N-(3-(3-(difluoromethyl)-4-fluorophenyl)-6-fluoroimidazo[1,2-a]pyridin-2-yl)-3,3-dimethylbutanamide]",–
500 to 3000 nM,"CC(C)(C#N)CC(=O)Nc1nc2ccc(F)cn2c1-c1ccc(OC(F)(F)F)cc1 [Compound 218, 3-cyano-N-(6-fluoro-3-(4-(trifluoromethoxy)phenyl)imidazo[1,2-a]pyridin-2-yl)-3-methylbutanamide]",–
3000 to 10000 nM,"O=C(CC1CC1)Nc1nc2ccc(F)cn2c1-c1ccc(F)cc1 [Compound 129, 2-cyclopropyl-N-(6-fluoro-3-(4-fluorophenyl)imidazo[1,2-a]pyridin-2-yl)acetamide]",–
< 500 nM,"CC(C)C(C)C(=O)Nc1nc2ccc(F)cn2c1-c1cccc(Cl)c1 (stereo not shown) [Compound 314, N-(3-(3-chlorophenyl)-6-fluoroimidazo[1,2-a]pyridin-2-yl)-2,3-dimethylbutanamide]",–
